Results on 37 molecules are retold here after patent publication US20160158200A1, “Combinations of Hepatitis C Virus Inhibitors” (priority 2013, published 2016).

For this assay, the system named is HCV genotype-1a variant with glutamine 30 changed to glutamate in the NS5A protein. In kind it is cell-based. To be noted: test compound titrated with BMS-790052 fixed at 200 nM; genotype 1a Q30E replicon. Put shortly: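 Synergy was assessed by combining several fixed amounts of an NS5A-targeting compound with a titration of the second compound of interest.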
Background: A replicon is a self-replicating genome or part of one, used to study replication in cells.

A value given as a limit tells only on which side of the number the result lay.

`CCC(C)(C)C(=O)N[C@H](c1ncc(-c2ccc(-c3ccc(-c4cnc([C@@H](NC(=O)C(C)(C)CC)C(C)C)[nH]4)cc3)cc2)[nH]1)C(C)C` [Compound P-68]: the “Fold-Synergistic 1a (Q30E)” value was greater than 100 fold.

For `CC(C)(C)OC(=O)N1CCCC1C(=O)N[C@H](c1nc(-c2ccc(-c3ccc(-c4c[nH]c([C@@H](NC(=O)C5CCCN5C(=O)OC(C)(C)C)C(C)(C)C)n4)cc3)cc2)c[nH]1)C(C)(C)C` (stereo partly shown) [Compound W-86], the “Fold-Synergistic 1a (Q30E)” value is listed as greater than 100 fold.

Turning to `COC(CO)(CC(C)C)C(=O)N[C@H](c1nc(-c2ccc(-c3ccc(-c4c[nH]c([C@@H](NC(=O)C(CO)(CC(C)C)OC)C(C)(C)C)n4)cc3)cc2)c[nH]1)C(C)(C)C` (single isomer, unassigned) [Compound N-160B], the “Fold-Synergistic 1a (Q30E)” value is on record as greater than 100 fold.

Take `CC(C)[C@H](NC(=O)c1cc(Cl)ccc1F)c1nc(-c2ccc(-c3ccc(-c4c[nH]c([C@@H](NC(=O)c5cc(Cl)ccc5F)C(C)C)n4)cc3F)cc2)c[nH]1.O=C(O)C(F)(F)F` [Compound N-99]: the “Fold-Synergistic 1a (Q30E)” value is greater than 100 fold.

Turning to `CC(C)(C)[C@H](NC(=O)[C@@](C)(O)c1ccccc1)c1nc(-c2ccc(-c3ccc(-c4c[nH]c([C@@H](NC(=O)[C@@](C)(O)c5ccccc5)C(C)(C)C)n4)cc3)cc2)c[nH]1` [Compound L-95], the “Fold-Synergistic 1a (Q30E)” value is listed as greater than 100 fold.

As for `CC(C)(C)[C@H](NC(=O)C1CCC(F)(F)CC1)c1ncc(C#Cc2ccc(C#Cc3cnc([C@@H](NC(=O)C4CCC(F)(F)CC4)C(C)(C)C)[nH]3)cc2)[nH]1` [Compound B60], the “Fold-Synergistic 1a (Q30E)” value is recorded as greater than 100 fold.

Take `O=C(c1ccc(-c2ccccc2)cc1)N1CCC[C@H]1c1ncc(-c2ccc(-c3ccc(-c4cnc([C@@H]5CCCN5C(=O)c5ccc(-c6ccccc6)cc5)[nH]4)cc3)cc2)[nH]1` [Compound S-117]: the “Fold-Synergistic 1a (Q30E)” value is recorded as greater than 10 fold.

`CC(C)[C@H](NC(=O)C(C)(C)C)c1nc(-c2ccc(-c3ccc(-c4c[nH]c([C@@H](NC(=O)C(C)(C)C)C(C)C)n4)nc3)cc2)c[nH]1` [Compound N-101, N—((S)-2-methyl-1-(4-(4-(6-(2-((S)-2-methyl-1-pivalamidopropyl)-1H-imidazol-4-yl)pyridin-3-yl)phenyl)-1H-imidazol-2-yl)propyl)pivalamide]: the “Fold-Synergistic 1a (Q30E)” value is recorded as greater than 100 fold.

On to `CC(C)[C@H](NC(=O)c1cccc(Cl)c1)c1ncc(-c2ccc(-c3ccc(-c4cnc([C@@H](NC(=O)c5cccc(Cl)c5)C(C)(C)C)[nH]4)cc3)cc2)[nH]1` [Compound Y-46], for which the “Fold-Synergistic 1a (Q30E)” value is reported as greater than 100 fold.

For `CO[C@H](C(=O)N[C@H](c1nc(-c2ccc(-c3ccc(-c4c[nH]c([C@@H](NC(=O)[C@@H](OC)c5ccccc5)C(C)(C)C)n4)cc3)cc2)c[nH]1)C(C)(C)C)c1ccccc1` [Compound P-18], the “Fold-Synergistic 1a (Q30E)” value is reported as greater than 100 fold.

With `CC(C)(C)C(=O)N[C@H](c1ncc(-c2ccc(-c3ccc(-c4cnc([C@@H](NC(=O)C(C)(C)C)C5(C)CCC5)[nH]4)cc3)cc2)[nH]1)C1(C)CCC1` [Compound Y-39], the “Fold-Synergistic 1a (Q30E)” value is reported as greater than 100 fold.

Take `COc1ccccc1C(O)C(C)(C)C(=O)N[C@H](c1nc(-c2ccc(-c3ccc(-c4c[nH]c([C@@H](NC(=O)C(C)(C)C(O)c5ccccc5OC)C(C)(C)C)n4)cc3)cc2)c[nH]1)C(C)(C)C` (single isomer, unassigned) [Compound N-125C]: the “Fold-Synergistic 1a (Q30E)” value is reported as greater than 100 fold.

As to `CC(=O)NC1(C(=O)N[C@H](c2nc(-c3ccc(-c4ccc(-c5c[nH]c([C@@H](NC(=O)C6(NC(C)=O)CCCCC6)C(C)(C)C)n5)cc4)cc3)c[nH]2)C(C)(C)C)CCCCC1` [Compound W-252], the “Fold-Synergistic 1a (Q30E)” value is reported as greater than 100 fold.

For `CC(C)(C(=O)N[C@H](c1nc(-c2ccc(-c3ccc(-c4c[nH]c([C@@H](NC(=O)C(C)(C)C(O)C5CC(F)(F)C5)C(C)(C)C)n4)cc3)cc2)c[nH]1)C(C)(C)C)C(O)C1CC(F)(F)C1` (single isomer, unassigned) [Compound N-144C], the “Fold-Synergistic 1a (Q30E)” value was greater than 100 fold.

In the case of `COC(C)(COCc1ccccc1)C(=O)N[C@H](c1nc(-c2ccc(-c3ccc(-c4c[nH]c([C@@H](NC(=O)C(C)(COCc5ccccc5)OC)C(C)(C)C)n4)cc3)cc2)c[nH]1)C(C)(C)C.O=C(O)C(F)(F)F.O=C(O)C(F)(F)F` (single isomer, unassigned) [Compound W-230], the “Fold-Synergistic 1a (Q30E)” value is listed as greater than 100 fold.

As to `CC1([C@H](NC(=O)C(=O)N2CCCCCC2)c2nc(-c3ccc(-c4ccc(-c5c[nH]c([C@@H](NC(=O)C(=O)N6CCCCCC6)C6(C)CC6)n5)cc4)cc3)c[nH]2)CC1` [Compound W-57], the “Fold-Synergistic 1a (Q30E)” value is on record as greater than 100 fold.

Take `CC(C)(C)OC(=O)NC1CCC(C(=O)N[C@H](c2nc(-c3ccc(-c4ccc(-c5c[nH]c([C@@H](NC(=O)C6CCC(NC(=O)OC(C)(C)C)CC6)C(C)(C)C)n5)cc4)cc3)c[nH]2)C(C)(C)C)CC1` (stereo partly shown) [Compound S-270]: the “Fold-Synergistic 1a (Q30E)” value is listed as greater than 100 fold.

Regarding `CC1([C@H](NC(=O)C(C)(C)C(C)(C)O)c2nc3ccc(C#Cc4ccc5nc([C@@H](NC(=O)C(C)(C)C(C)(C)O)C6(C)CC6)[nH]c5c4)cc3[nH]2)CC1` [Compound B68], the “Fold-Synergistic 1a (Q30E)” value is recorded as greater than 100 fold.

Turning to `CC(C)(C)[C@H](NC(=O)c1ncccc1F)c1nc(-c2ccc(-c3ccc(-c4c[nH]c([C@@H](NC(=O)c5ncccc5F)C(C)(C)C)n4)cc3)cc2)c[nH]1` [Compound P-22], the “Fold-Synergistic 1a (Q30E)” value is recorded as greater than 100 fold.

In the case of `CC(C)C(NC(=O)C(C)(C)C(O)C1CC1)c1nc(-c2ccc(-c3ccc(-c4c[nH]c(C(NC(=O)C(C)(C)C(O)C5CC5)C(C)C)n4)cc3)cc2)c[nH]1` (mixture of isomers) [Compound N-149], the “Fold-Synergistic 1a (Q30E)” value is greater than 100 fold.

Take `COCC1(C(=O)N[C@H](c2ncc(-c3ccc(-c4ccc(-c5cnc([C@@H](NC(=O)C6(COC)CCC6)C(C)C)[nH]5)cc4)cc3)[nH]2)C(C)C)CCC1` [Compound P-74]: the “Fold-Synergistic 1a (Q30E)” value is listed as greater than 100 fold.

Regarding `COC(=O)NC(C)(C)C(=O)N[C@H](c1nc(-c2ccc(-c3ccc(-c4c[nH]c([C@@H](NC(=O)C(C)(C)NC(=O)OC)C(C)(C)C)n4)cc3)cc2)c[nH]1)C(C)(C)C` [Compound Q-1], the “Fold-Synergistic 1a (Q30E)” value is listed as greater than 100 fold.

Take `CC(C)(C)[C@H](NC(=O)C1(C(F)(F)F)CCCC1)c1nc(-c2ccc(-c3ccc(-c4c[nH]c([C@@H](NC(=O)C5(C(F)(F)F)CCCC5)C(C)(C)C)n4)cc3)cc2)c[nH]1` [Compound N-52]: the “Fold-Synergistic 1a (Q30E)” value was greater than 100 fold.

Consider `CC(C)[C@H](NC(=O)C(C)(C)OCC(F)(F)F)c1ncc(-c2ccc(-c3ccc(-c4cnc([C@@H](NC(=O)C(C)(C)OCC(F)(F)F)C(C)C)[nH]4)cc3)cc2)[nH]1` [Compound Y-31], for which the “Fold-Synergistic 1a (Q30E)” value is listed as greater than 100 fold.

Take `CO[C@H](C)[C@H](NC(=O)C1CCC(F)(F)CC1)c1nc(-c2ccc(-c3ccc(-c4c[nH]c([C@@H](NC(=O)C5CCC(F)(F)CC5)[C@@H](C)OC)n4)cc3)cc2)c[nH]1` [Compound L-98]: the “Fold-Synergistic 1a (Q30E)” value is recorded as less than 10 fold.

For the molecule `CN(C)C(=N[C@H](c1ncc(-c2ccc(-c3ccc(-c4cnc([C@@H](NC(=O)C(C)(C)C5=CCCCC5)C(C)(C)C)[nH]4)cc3)cc2)[nH]1)C(C)(C)C)N(C)C` [Compound B87], the “Fold-Synergistic 1a (Q30E)” value is listed as greater than 100 fold.

For the molecule `CN(C(=O)C1CCC(F)(F)CC1)[C@H](c1ncc(-c2ccc(-c3ccc(-c4cnc([C@@H](N(C)C(=O)C5CCC(F)(F)CC5)C(C)(C)C)[nH]4)cc3)cc2)[nH]1)C(C)(C)C` [Compound B-206], the “Fold-Synergistic 1a (Q30E)” value is listed as less than 10 fold.

On to `CN(C)S(=O)(=O)N[C@H](c1nc(-c2ccc(-c3ccc(-c4c[nH]c([C@@H](NS(=O)(=O)N(C)C)C(C)(C)C)n4)cc3)cc2)c[nH]1)C(C)(C)C` [Compound L-116], for which the “Fold-Synergistic 1a (Q30E)” value is recorded as greater than 100 fold.

As to `CC(C)[C@H](NC(=O)c1nn(C)c2ccccc12)c1ncc(-c2ccc(-c3ccc(-c4cnc([C@@H](NC(=O)c5nn(C)c6ccccc56)C(C)C)[nH]4)cc3)cc2)[nH]1` [Compound P-96], the “Fold-Synergistic 1a (Q30E)” value is greater than 100 fold.

As to `CC(C)[C@H](NC(=O)c1ccccc1N(C)C)c1ncc(-c2ccc(-c3ccc(-c4cnc([C@@H](NC(=O)c5ccccc5N(C)C)C(C)C)[nH]4)cc3)cc2)[nH]1` [Compound S-91], the “Fold-Synergistic 1a (Q30E)” value is on record as greater than 100 fold.

Consider `COC(C)(CO)C(=O)N[C@H](c1nc(-c2ccc(-c3ccc(-c4c[nH]c([C@@H](NC(=O)C(C)(CO)OC)C(C)(C)C)n4)cc3)cc2)c[nH]1)C(C)(C)C` (single isomer, unassigned) [Compound W-237], for which the “Fold-Synergistic 1a (Q30E)” value was greater than 100 fold.

In the case of `CC1(C)CCCC(C)(C(=O)N[C@H](c2nc(-c3ccc(-c4ccc(-c5c[nH]c([C@@H](NC(=O)C6(C)CCCC(C)(C)O6)C(C)(C)C)n5)cc4)cc3)c[nH]2)C(C)(C)C)O1` (single isomer, unassigned) [Compound W-168], the “Fold-Synergistic 1a (Q30E)” value is reported as greater than 10 fold.

Consider `CC(C)[C@H](NC(=O)c1cccs1)c1ncc(-c2ccc(-c3ccc(-c4cnc([C@@H](NC(=O)c5cccs5)C(C)C)[nH]4)cc3)cc2)[nH]1` [Compound S-14], for which the “Fold-Synergistic 1a (Q30E)” value was greater than 100 fold.

Regarding `CC(C)[C@H](NC(=O)c1cocn1)c1ncc(-c2ccc(-c3ccc(-c4cnc([C@@H](NC(=O)c5cocn5)C(C)C)[nH]4)cc3)cc2)[nH]1` [Compound P-92], the “Fold-Synergistic 1a (Q30E)” value was greater than 10 fold.

`COC(c1ccccc1)C1(C(=O)N[C@H](c2nc(-c3ccc(-c4ccc(-c5c[nH]c([C@@H](NC(=O)C6(C(OC)c7ccccc7)CC6)C(C)(C)C)n5)cc4)cc3)c[nH]2)C(C)(C)C)CC1` (single isomer, unassigned) [Compound N-137C]: the “Fold-Synergistic 1a (Q30E)” value is listed as greater than 100 fold.

For `COC(=O)NN(C(=O)[C@@H]1CCC[C@H]1c1nc(-c2ccc(-c3ccc(-c4cnc([C@@H]5CCC[C@H]5C(=O)N(NC(=O)OC)C(C)C)[nH]4)cc3)cc2)c[nH]1)C(C)C` [Compound V-1], the “Fold-Synergistic 1a (Q30E)” value is reported as greater than 100 fold.

On to `COC(=O)N(C)C1(C(=O)N[C@H](c2nc(-c3ccc(-c4ccc(-c5c[nH]c([C@@H](NC(=O)C6(N(C)C(=O)OC)CC6)C(C)(C)C)n5)cc4)cc3)c[nH]2)C(C)(C)C)CC1.O=C(O)C(F)(F)F.O=C(O)C(F)(F)F` [Compound L-19], for which the “Fold-Synergistic 1a (Q30E)” value is recorded as greater than 100 fold.
